Reference: patent publication US20170290814A1, “METHODS OF TREATMENT OF CHOLESTASIS AND FIBROSIS” (GENFIT, priority 2016, published 2017)

Columns and labels:
Type in all cases: cell-based
[1] = tested on: TGFβ1-induced expression of α-SMA protein in human intestinal fibroblasts (InMyoFib); assay: α-SMA ELISA in TGFβ1-activated human intestinal myofibroblasts; conditions: TGFβ1 3 ng/ml, 48 h
Experimental: (§1) Cpd.5 was added to serum-deprived intestinal fibroblasts (InMyoFib) 1 hour before the activation with TGFβ1 (3 ng/ml). After 48 hours of incubation, the expression of α-SMA was measured by ELISA. The obtained values were transformed into percentage inhibition over TGFβ1 control. Data are presented as mean (triplicates)±standard deviation (SD). Statistical analyses were performed by one-way ANOVA followed by Bonferroni post-hoc tests, using Sigma Plot 11.0 software. [*: p<0.05; **: p<0.01; ***: p<0.001 (comparison versus TGFβ1 3 ng/mL group)].
The Human Intestinal Myofibroblast (InMyoFib) (Lonza) were cultured in Smooth Muscle Cell Basal Medium (SmBM-2 TM) (Lonza cat #CC-3181) that was supplemented with SmGMTM-2 BulletKit TM (Lonza cat #CC-4149). The complete medium contains 5% fetal bovine serum. For the activation experiments with TGFβ1, the inMyoFib were plated at a density of 10×10^3 cells per well in 96-well plates. The next day, cell-culture medium was removed, and cells were washed with PBS (Invitrogen cat #14190). InMyoFib were deprived for 24 hours in serum-free, insulin-free and rhFGF-B-free medium. […]
(§2) The level of α-SMA was measured using a Sandwich ELISA. […]

[2] = tested on: TGFβ1-induced expression of α-SMA protein in human cardiac fibroblasts (NHCF); assay: α-SMA ELISA in TGFβ1-activated normal human cardiac fibroblasts; conditions: TGFβ1 3 ng/ml, 48 h
Experimental: as §1, with “cardiac” for “intestinal”, “(NHCF)” for “(InMyoFib)”
The Normal Human Cardiac Fibroblasts (ventricle) (NHCF-V) (Lonza) were isolated from normal, adult heart tissue. Cells were cultured in Fibroblast Basal Medium (FBM) (Lonza cat #CC-3131) that was supplemented with FGM™-3 BulletKit™ kit (Lonza cat #CC-4525). The complete medium contains 10% fetal bovine serum. For the activation experiments with TGFβ1, the NHCF-V were plated at a density of 6×10^3 cells per well in 96-well plates. The next day, cell-culture medium was removed, and cells were washed with PBS (Invitrogen cat #14190). NHCF were deprived for 24 hours in serum-free, insulin-free and rhFGF-B-free medium. […]
as §2

[3] = tested on: TGFβ1-induced expression of α-SMA protein in NHLF; assay: α-SMA ELISA in TGFβ1-activated normal human lung fibroblasts; conditions: TGFβ1 1 ng/ml, 48 h
Experimental: Serum-deprived NHLF were preincubated for 1 hour with RM-5061 before the activation with the profibrogenic cytokine TGFβ1 (1 ng/ml). After 48 hours of incubation, the expression of α-SMA was measured by ELISA. The obtained values were transformed into percentage inhibition over TGFβ1 control. Data are presented as mean (quadruplicates)±standard error of the mean (SEM). Statistical analyses were performed by kruskal-Wallis test followed by Dunn's multiple comparison tests, using GraphPad Prism 5.02 software. [*: p<0.05; **: p<0.01; ***: p<0.001 (comparison versus TGFβ1 1 ng/mL group)]. The curve fitting and the calculation of half maximal inhibitory concentration (IC50) were performed with XLFit software 5.3.1.3.
as §1, with “lung” for “intestinal”, “(NHLF)” for “(InMyoFib)”, “(1” for “(3”, “1” for “3”
The Normal Human Lung Fibroblasts (NHLF) (Lonza) were cultured in Fibroblast Basal Medium (FBM) (Lonza cat #CC-3131) that was supplemented with FGM-2 SingleQuots™ Kit (Lonza cat #CC-3132). The complete medium contains 2% fetal bovine serum. For the activation experiments with TGFβ1, the NHLF were plated at a density of 5×10^3 cells per well in 96-well plates. The next day, cell-culture medium was removed, and cells were washed with PBS (Invitrogen cat #14190). NHLF were deprived for 24 hours in serum-free, insulin-free and rhFGF-B-free medium. […]
as §2

Row | Structure (SMILES) | effect on TGFβ1-induced α-SMA in human intestinal fibroblasts [1] | effect on TGFβ1-induced α-SMA in human cardiac fibroblasts [2] | effect on TGFβ1-induced α-SMA in NHLF [3] | IC50 α-SMA in NHLF ([3]; compared with IC50 in human HSC)
1 | [2H]C([2H])([2H])C(=O)Oc1ccccc1C(=O)Nc1ncc([N+](=O)[O-])s1 [Cpd.5, 2-[(5-nitro-1,3-thiazol-2-yl)carbamoyl]phenyl (d3)ethanoate] | inhibits | inhibits | inhibits | –
2 | CC(C)(C)[C@H](N)C(=O)Oc1ccccc1C(=O)Nc1ncc([N+](=O)[O-])s1 [RM-5061, (S)-2-(5-nitrothiazol-2-ylcarbamoyl)phenyl 2-amino-3,3-dimethylbutanoate] | – | – | inhibits | comparable IC50
